Reference: patent US8969395B2, “Triterpenoid derivatives useful as antiproliferative agents” (Universidade de Coimbra, priority 2009, dated 2015)

Legend:
Assay type in all cases: cell-based
[1] = test system: HepG2 (human hepatocellular carcinoma); assay: Cytotoxic activity, MTT assay, HepG2; conditions: 72 h, mean ±SD
Method: (§1) The cytotoxic of compounds of formulas (I) and (II) 14-50 was assessed towards human cancer (HepG2, HeLa and Jurkat) cell lines (Table 3 below). Compounds presented on Table 4 were also tested against a non-tumoral liver cell line (Chang liver). The cell viability of HeLa, HepG2 and Chang liver cells was determined by the MTT assay. Briefly, exponentially growing cells were plated in 96-well plates at a density of 1×10^3, 8×10^3 and 5×10^3 cells/well respectively and incubated for 24 h before treatment. The grown medium was replaced with one contained the tested compounds dissolved in DMSO (final DMSO concentration <0.1%) at different concentrations, in triplicate wells, and cells were incubated for 72 h. After incubation with the compounds, the medium was removed and MTT solution (0.5 mg/ml, 100 μl) was added to each well and the plates were incubated again for 1 h. DMSO (100 μl) was then added to dissolve the formazan crystals and the plates were immediately read at 550 nm on an ELISA plate reader (Tecan Sunrise MR20-301, TECAN, Austria). For the Jurkat cells, the cell viability was determined by the XTT assay. Briefly, exponentially growing cells were plated in 96-well plates at a density of 5.5×10^3 cells/well, treated with different concentrations of compounds in triplicate and incubated for 72 h. After incubation with the compounds the XTT labeling mixture (100 μl) were added to each of the wells and after a 4 h incubation period the plates were read at 450 nm on an ELISA plate reader. […] Known for its cytotoxic activity, betulinic acid 2 was used as a positive control in this experimentation. […] All the IC50 results represent an average of a minimum of three experiments and were expressed as means±standard deviation (SD).

[2] = test system: HT-29 (human colon adenocarcinoma); assay: Cytotoxic activity, HT-29; conditions: mean ±SD
Method: (§2) Compounds presented in Table 6 were also tested in the following cell lines: PC-3 (human prostate adenocarcinoma), LNCaP (human prostate adenocarcinoma), LAPC4 (human prostate adenocarcinoma) and HT-29 (human colon adenocarcinoma).

Jurkat (human leukemia) = assay: Cytotoxic activity, XTT assay, Jurkat; conditions: 72 h, mean ±SD
Method: as §1

[3] = test system: HeLa (human cervical adenocarcinoma); assay: Cytotoxic activity, MTT assay, HeLa; conditions: 72 h, mean ±SD
Method: The cytotoxic of compounds of formulas (I) and (II) 14-50 was assessed towards human cancer (HepG2, HeLa and Jurkat) cell lines (Table 3 below). Compounds presented on Table 4 were also tested against a non-tumoral liver cell line (Chang liver). The cell viability of HeLa, HepG2 and Chang liver cells was determined by the MTT assay. Briefly, exponentially growing cells were plated in 96-well plates at a density of 1×10^3, 8×10^3 and 5×10^3 cells/well respectively and incubated for 24 h before treatment. The grown medium was replaced with one contained the tested compounds dissolved in DMSO (final DMSO concentration <0.1%) at different concentrations, in triplicate wells, and cells were incubated for 72 h. After incubation with the compounds, the medium was removed and MTT solution (0.5 mg/ml, 100 μl) was added to each well and the plates were incubated again for 1 h. DMSO (100 μl) was then added to dissolve the formazan crystals and the plates were immediately read at 550 nm on an ELISA plate reader (Tecan Sunrise MR20-301, TECAN, Austria). For the Jurkat cells, the cell viability was determined by the XTT assay. Briefly, exponentially growing cells were plated in 96-well plates at a density of 5.5×10^3 cells/well, treated with different concentrations of compounds in triplicate and incubated for 72 h. After incubation with the compounds the XTT labeling mixture (100 μl) were added to each of the wells and after a 4 h incubation period the plates were read at 450 nm on an ELISA plate reader. […] Known for its cytotoxic activity, betulinic acid 2 was used as a positive control in this experimentation.

[4] = test system: Chang liver (human normal liver cells); assay: Cytotoxic activity against non-tumoral cell line, MTT assay; conditions: 72 h, mean ±SD
Method: as §1

[5] = test system: LAPC4 (human prostate adenocarcinoma); assay: Cytotoxic activity, LAPC4; conditions: mean ±SD
Method: as §2

[6] = test system: PC-3 (human prostate adenocarcinoma); assay: Cytotoxic activity, PC-3; conditions: mean ±SD
Method: as §2

[7] = test system: LNCaP (human prostate adenocarcinoma); assay: Cytotoxic activity, LNCaP; conditions: mean ±SD
Method: as §2

Row | Compound | IC50 [1] [µM] | IC50 [2] [µM] | IC50 (Jurkat (human leukemia)) [µM] | IC50 [3] [µM] | IC50 [4] [µM] | IC50 [5] [µM] | IC50 [6] [µM] | IC50 [7] [µM]
1 | 3β-(1H-imidazole-2′-methyl-1-carbonyloxy)-lup-20(29)-en-28-oic acid [Compound 29] | 7.3 ± 1 | 5.7 ± 0.6 | 16.1 ± 3.3 | 7.5 ± 1.5 | – | – | – | –
2 | C=C(C)[C@@H]1CC[C@]2(COC(=O)n3ccnc3C)CC[C@]3(C)[C@H](CC[C@@H]4[C@@]5(C)CC[C@H](O)C(C)(C)[C@@H]5CC[C@]43C)[C@@H]12 [Compound 15, 3β-hydroxy-lup-20(29)-en-28-yl-2′-methyl-1H-imidazole-1-carboxylate] | 8.1 ± 0.4 | 16.2 ± 2.1 | 15.8 ± 2.4 | 11 ± 1.7 | – | – | – | –
3 | C=C(C)[C@@H]1CC[C@]2(C(=O)n3ccnc3C)CC[C@]3(C)[C@H](CC[C@@H]4[C@@]5(C)CC[C@H](OC(=O)n6ccnc6C)C(C)(C)[C@@H]5CC[C@]43C)[C@@H]12 [Compound 31, 28-(2′-methyl-1H-imidazole-1-yl)-28-oxo-lup-20(29)-en-3β-yl-2′-methyl-1H-imidazole-1-carboxylate] | 11.6 ± 0.8 | 7.8 ± 1.6 | 20.1 ± 3.2 | – | – | – | – | –
4 | C=C(C)[C@@H]1CC[C@]2(C(=O)OC)CC[C@]3(C)[C@H](CC[C@@H]4[C@@]5(C)CC[C@H](OC(=O)n6ccnc6C)C(C)(C)[C@@H]5CC[C@]43C)[C@@H]12 [Compound 34, Methyl 3β-(2′-methyl-1H-imidazole-1-carbonyloxy)-lup-20(29)-en-28-oate] | 13.4 ± 1.7 | 12.9 ± 0.5 | 16.4 ± 2.4 | 13.4 ± 1.7 | – | – | – | –
5 | C=C(COC)[C@@H]1CC[C@]2(COC(=O)n3ccnc3C)CC[C@]3(C)[C@H](CC[C@@H]4[C@@]5(C)CC[C@H](O)C(C)(C)[C@@H]5CC[C@]43C)[C@@H]12 [Compound 36, 3β-hydroxy-30-methoxylup-20(29)-en-28-yl-2′-methyl-1H-imidazole-1-carboxylate] | 14.4 ± 1.3 | 10.4 ± 1.6 | 24.8 ± 4.7 | 8.9 ± 2.1 | – | – | – | –
6 | Cc1nccn1C(=O)OC[C@]12CC[C@@H]([C@@H](C)C=O)C1[C@H]1CC[C@@H]3[C@@]4(C)CC[C@H](O)C(C)(C)[C@@H]4CC[C@@]3(C)[C@]1(C)CC2 (stereo partly drawn) [Compound 42, 3β-hydroxy-(20R)-lupan-29-oxo-28-yl-2′-methyl-1H-imidazole-1-carboxylate] | 14.3 ± 2.4 | 15.8 ± 1.7 | 21.3 ± 4.1 | 16.6 ± 1.5 | – | – | – | –
7 | C[C@@H](C=O)[C@@H]1CC[C@]2(COC(=O)n3ccnc3)CC[C@]3(C)[C@H](CC[C@@H]4[C@@]5(C)CC[C@H](OC(=O)n6ccnc6)C(C)(C)[C@@H]5CC[C@]43C)[C@@H]12 [Compound 43, (20R)-lupane-29-oxo-3β,28-di-yl-(1H-imidazole-1-carboxylate)] | 26.1 ± 1.1 | – | 20.2 ± 1.6 | 19.2 ± 1.5 | 156 ± 12.5 | 7.9 ± 1.3 | 6.2 ± 0.7 | 6.9 ± 0.3
8 | C=C(C)[C@@H]1CC[C@]2(C(=O)n3ccnc3C)CC[C@]3(C)[C@H](CC[C@@H]4[C@@]5(C)CCC(=O)C(C)(C)[C@@H]5CC[C@]43C)[C@@H]12 [Compound 45, 28-(2′-methyl-1H-imidazol-1-yl)-lup-20(29)-en-3,28-dione] | 5.5 ± 1.1 | 4.7 ± 1.1 | 9.3 ± 2.2 | 4.2 ± 1.2 | – | – | – | –
9 | C=C(C)[C@@H]1CC[C@]2(C(=O)n3ccnc3C)CC[C@]3(C)[C@H](CC[C@@H]4[C@@]5(C)C=CC(=O)C(C)(C)[C@@H]5CC[C@]43C)[C@@H]12 [Compound 47, 28-(2′-methyl-1H-imidazol-1-yl)-lup-1,20(29)-dien-3,28-dione] | 12.7 ± 1.2 | 5.9 ± 0.3 | 9.4 ± 0.8 | 6.4 ± 0.8 | – | – | – | –
10 | C=C(C)[C@@H]1CC[C@]2(C(=O)O)CC[C@]3(C)[C@H](CC[C@@H]4[C@@]5(C)C=C(OC(=O)n6ccnc6C)C(=O)C(C)(C)[C@@H]5CC[C@]43C)[C@@H]12 [Compound 50, 2-(2′-methyl-1H-imidazole-1-carbonyloxy)-3-oxolup-1,20(29)-dien-28-oic acid] | 6.8 ± 1.5 | 9 ± 1.7 | 12.5 ± 1.2 | 10.6 ± 0.7 | – | – | – | –
